Test results: the supplement of paper PMC5580409

Tested on: Plasmodium falciparum 3D7
Assay: pEC50, asexual blood-stage growth inhibition
Conditions: 72 h
Description: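 Held-out test set measured in the Guy lab in 2014 with the same procedure as the primary St. Jude screen. P. falciparum 3D7 blood-stage culture (2% hematocrit, 1% parasitemia) was treated with compound for 72 h at 37 °C, and growth was read by SYBR Green I fluorescence. EC50 came from a four-parameter Hill fit over a 10-point dilution series […].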

## O=C(NC1CCCCC1)c1cn(C2CC2)cc(C(=O)NC2CCN(Cc3ccccc3)CC2)c1=O
  pEC50: < 4.82

## CCN(CC)CCN1C(=O)c2ccccc2NC1c1ccc(Cl)cc1Cl (stereo not given)
  pEC50: < 4.82

## CCCCNC(=O)c1cn(C2CCCCC2)cc(C(=O)NC2CCN(Cc3ccccc3)C2)c1=O (stereo not given)
  pEC50: < 4.82

## O=C(Nc1ccncc1)C1CC1c1ccccc1 (stereo not given)
  pEC50: < 4.82

## CCCn1nnnc1NCc1cc(Br)c(OCc2ccccc2)c(OC)c1
  pEC50: < 4.82

## N=c1n(CCN2CCCCC2)c2ccccc2n1CC(O)COc1ccc(Cl)cc1Cl (stereo not given)
  pEC50: 5.53

## CCN(CC)CCn1c(=N)n(CC(O)COc2ccccc2)c2ccccc21 (stereo not given)
  pEC50: < 4.82

## COc1ccc(C)cc1S(=O)(=O)N1CCC(CO)(Cc2cccc(C(F)(F)F)c2)CC1
  pEC50: < 4.82

## CCC(C)c1ccc(NC(=O)/C=C/c2cccc(Cl)c2)cc1 (stereo not given)
  pEC50: < 4.82

## CC(=O)Nc1cccc(Nc2nc(N3CCCCC3)nc(N(c3ccccc3)c3ccccc3)n2)c1
  pEC50: 5.61

## Cc1ccc(OCC(O)CNC2CCCC2)cc1C (stereo not given)
  pEC50: 5.85

## CCN1CCN(Cc2c(O)ccc3c(=O)c(Oc4ccccc4Br)c(C(F)(F)F)oc23)CC1
  pEC50: 5.46

## CCCCNCC(O)COc1ccc(Cl)c(C)c1 (stereo not given)
  pEC50: 5.14

## COc1ccc(C2CC(=O)NC3=C2C(=O)CC(c2ccccc2)C3)cc1OC (stereo not given)
  pEC50: 5.34

## COc1ccc(OC)c(C2CC(=O)C3=C(C2)NC(=O)CC3c2cccc(Cl)c2Cl)c1 (stereo not given)
  pEC50: 5.61

## Cc1ccc2nc(-c3cccnc3)cc(C(=O)N3CCN(C(c4ccccc4)c4ccccc4)CC3)c2c1
  pEC50: 5.71

## Cc1ccc(Nc2cc(N3CCN(C(=O)c4ccc(C)cc4)CC3)ncn2)cc1
  pEC50: 6.13

## Cc1ccc2c(c1)c1c3n2CCCN=C3CCC1
  pEC50: < 4.82

## CCN1/C(=C/C=C/C=C/c2sc3ccccc3[n+]2CC(=O)O)Sc2ccccc21
  pEC50: < 4.82

## CCC(C(=O)Nc1ccc(-c2nc3ccccc3[nH]2)cc1)c1ccccc1 (stereo not given)
  pEC50: < 4.82

## CCN(CC)CCN1C(=O)c2ccccc2NC1c1ccc(Br)cc1 (stereo not given)
  pEC50: 5.74

## CCN(CC)c1nc(Nc2cccc(Br)c2)nc(Nc2cc(C)ccc2C)n1
  pEC50: < 4.82

## CC1=C(C(=O)OCCOc2ccccc2)C(c2ccc(F)cc2)C2=C(CC(c3ccccc3)CC2=O)N1 (stereo not given)
  pEC50: < 4.82

## CC(C)c1ccc(/C=C/C(=O)Nc2ccc(C(C)C)cc2)cc1
  pEC50: < 4.82

## Cc1cccc(C2(c3cccc(C)c3)CC2C(=O)Nc2cc([N+](=O)[O-])ccc2O)c1 (stereo not given)
  pEC50: 5.27

## O=C(Cc1cccc2ccccc12)Nc1ccc(-c2nc3ccccc3[nH]2)cc1
  pEC50: 5.57

## COc1ccc(OC)c(NCC(O)Cn2c3ccc(Cl)cc3c3cc(Cl)ccc32)c1 (stereo not given)
  pEC50: < 4.82

## O=S(=O)(c1ccccc1)N1CCC(CO)(Cc2ccccc2C(F)(F)F)CC1
  pEC50: < 4.82

## CC(C)(C)C(=O)N1CCN(C(c2ccccc2)c2ccccc2)CC1
  pEC50: < 4.82

## CCOc1cc(C2CC(=O)NC3=C2C(=O)CC(c2ccc(OC)c(OC)c2)C3)cc(Cl)c1O (stereo not given)
  pEC50: 6.68

## N=c1n(CCN2CCCCC2)c2ccccc2n1CC(O)c1cccc(Br)c1 (stereo not given)
  pEC50: 5.73

## OC(CNCc1cccc(Cl)c1)c1ccccc1 (stereo not given)
  pEC50: < 4.82

## Oc1ccc(Br)cc1CN1CCN(C2CCCCCC2)CC1
  pEC50: 6.34

## OC(CNc1cccc2ccccc12)Cn1c2ccccc2c2ccccc21 (stereo not given)
  pEC50: < 4.82

## COc1ccc(OC)c(C2CC(=O)NC3=C2C(=O)CC(c2ccc(OC)c(OC)c2)C3)c1 (stereo not given)
  pEC50: < 4.82

## COc1cccc(CNc2nnnn2C)c1OCc1ccc(C)cc1
  pEC50: < 4.82

## O=C(c1ccccc1)N1CCN(c2ccc([N+](=O)[O-])c(NC3CC3)c2)CC1
  pEC50: < 4.82

## CCOc1ccc(-c2nc3cc(C)ccc3[nH]2)cc1
  pEC50: 5.12

## COc1cccc(CNCC(O)c2ccccc2)c1 (stereo not given)
  pEC50: < 4.82

## COC(=O)c1ccc(NC(=O)/C=C/c2ccccc2Cl)cc1
  pEC50: 5.26

## COc1ccc(CN2CCCn3c4c(c5cc(C)ccc53)CCCC42)cc1 (stereo not given)
  pEC50: < 4.82

## CCOc1cc(C2C(C(=O)OCCOC)=C(C)NC3=C2C(=O)CC(c2ccc(Cl)cc2)C3)ccc1O (stereo not given)
  pEC50: 5.52

## CCOC(=O)C1=C(C)NC2=C(C(=O)CC(c3ccccc3)C2)C1c1cc(Cl)c(O)c(OC)c1 (stereo not given)
  pEC50: < 4.82

## Cc1cc(C)nc(Nc2ncc(O)n2-c2cccc(C(F)(F)F)c2)n1
  pEC50: < 4.82

## CCOC(=O)C1=C(C)NC2=C(C(=O)CC(c3ccc(OC)cc3)C2)C1c1cc(Br)c(O)c(OC)c1 (stereo not given)
  pEC50: 5.3

## CCCCn1c(=N)n(CC(O)COc2ccc(Cl)cc2)c2ccccc21 (stereo not given)
  pEC50: < 4.82

## Fc1ccccc1N1CCN(CC2CC3C=CC2C3)CC1 (stereo not given)
  pEC50: < 4.82

## CC(C)(C)NC(=O)c1cn(C2CCCCC2)cc(C(=O)NC2CCN(Cc3ccccc3)CC2)c1=O
  pEC50: < 4.82

## CCc1cccc(NC(=O)/C=C/c2ccccc2Cl)c1
  pEC50: 5.36

## CCOC(=O)C1=C(C)NC2=C(C(=O)CC(c3ccc(Cl)cc3)C2)C1c1cc(OC)c(OC)c(OC)c1 (stereo not given)
  pEC50: < 4.82

## CCn1c(SCC(=O)Nc2cc(C(F)(F)F)ccc2Cl)nnc1-c1ccccc1Cl
  pEC50: < 4.82

## O=C(Cc1ccccc1)Nc1ccc(-c2nc3cc(NC(=O)Cc4ccccc4)ccc3[nH]2)cc1
  pEC50: < 4.82

## CN1CCN(Cc2c(O)ccc3c(=O)c(Oc4ccc5ccccc5c4)c(C(F)(F)F)oc23)CC1
  pEC50: < 4.82

## COc1ccc(Cl)cc1NCC(O)Cn1c2ccccc2c2ccccc21 (stereo not given)
  pEC50: < 4.82

## COc1ccc(OC)c(C2CC(=O)C3=C(C2)NC(=O)CC3c2ccc(Cl)cc2Cl)c1 (stereo not given)
  pEC50: < 4.82

## Cc1cccc(Oc2c(C(F)(F)F)oc3c(CN4CCC(C)CC4)c(O)ccc3c2=O)c1
  pEC50: < 4.82

## CCCCn1c(=N)n(CC(=O)c2ccc(Br)cc2)c2ccccc21
  pEC50: < 4.82

## O=C(NCC1CCCCC1)c1cn(C2CC2)cc(C(=O)NC2CCN(Cc3ccccc3)C2)c1=O (stereo not given)
  pEC50: < 4.82

## Nc1ccc(C(=O)Nc2ccc(-c3nc4cc(NC(=O)c5ccc(N)cc5)ccc4[nH]3)cc2)cc1
  pEC50: < 4.82

## Oc1nc(/C=C/c2cccc3ccccc23)nc2ccccc12
  pEC50: < 4.82

## COc1ccc(S(=O)(=O)N2CCC(CO)(Cc3ccccc3C(F)(F)F)CC2)cc1
  pEC50: < 4.82

## OC(CNc1ccccc1)Cn1c2ccc(Cl)cc2c2cc(Cl)ccc21 (stereo not given)
  pEC50: 5.36

## CCCCNC(=O)c1cn(C2CCCCC2)cc(C(=O)NC2CCN(Cc3ccccc3)CC2)c1=O
  pEC50: < 4.82

## OCCC1CN(Cc2cc(Cl)ccc2O)CCN1CCCc1ccccc1 (stereo not given)
  pEC50: < 4.82

## Cc1ccc2[nH]c(-c3ccc(Br)cc3)nc2c1
  pEC50: < 4.82

## N=c1n(CCN2CCCC2)c2ccccc2n1CC(O)c1ccc(Cl)c(Cl)c1 (stereo not given)
  pEC50: 5.88

## Cc1cccc(NCC(O)Cn2c3ccc(Cl)cc3c3cc(Cl)ccc32)c1 (stereo not given)
  pEC50: 5.35

## OC(CN1CCCCCC1)Cn1c2ccccc2c2ccccc21 (stereo not given)
  pEC50: < 4.82

## COc1ccc(CC2(CO)CCN(S(=O)(=O)c3cccc(C(F)(F)F)c3)CC2)cc1
  pEC50: < 4.82

## Cc1cccc(NC(=O)/C=C/c2ccccc2Cl)c1
  pEC50: < 4.82

## OC(CNc1ccc(Cl)cc1)Cn1c2ccc(Cl)cc2c2cc(Cl)ccc21 (stereo not given)
  pEC50: < 4.82

## Cc1ccc(C2CC(C(F)(F)F)n3nc(C(=O)N(Cc4ccccc4)Cc4ccccc4)cc3N2)cc1 (stereo not given)
  pEC50: < 4.82

## OCC(O)Cn1c2ccc(Br)cc2c2cc(Br)ccc21 (stereo not given)
  pEC50: < 4.82

## Cc1c(Cl)ccc2c(C(=O)NCCN3CCOCC3)cc(-c3ccncc3)nc12
  pEC50: < 4.82

## Oc1ccc(Br)cc1CN1CCN(Cc2cccc3ccccc23)CC1
  pEC50: 6.3

## Nc1cccc(-c2nc3cc(Oc4ccc5[nH]c(-c6cccc(N)c6)nc5c4)ccc3[nH]2)c1
  pEC50: < 4.82

## CCOc1cc(C2C(C(=O)OCC(C)C)=C(C)NC3=C2C(=O)CC(c2ccc(Cl)cc2)C3)ccc1O (stereo not given)
  pEC50: < 4.82

## CCOc1ccc(NCC(O)Cn2c3ccc(Cl)cc3c3cc(Cl)ccc32)cc1 (stereo not given)
  pEC50: 5.13

## OC(CNCc1ccccc1)Cn1c2ccc(Cl)cc2c2cc(Cl)ccc21 (stereo not given)
  pEC50: 5.73

## COc1ccc(C2C(C(=O)OCCOc3ccccc3)=C(C)NC3=C2C(=O)CC(c2ccc(Cl)cc2)C3)cc1 (stereo not given)
  pEC50: < 4.82

## Cc1cc(OCC(O)CNC2CCCC2)ccc1Cl (stereo not given)
  pEC50: 6.61

## COc1ccc(CNC2CCCCC2)cc1OCC(O)CN(C)Cc1ccccc1 (stereo not given)
  pEC50: < 4.82

## Cc1ccc2[nH]c(-c3ccc(NC(=O)c4ccc(C)c(C)c4)cc3)nc2c1
  pEC50: 5.44

## Cc1ccc(C)c(Oc2c(C(F)(F)F)oc3c(CN4CCN(C)CC4)c(O)ccc3c2=O)c1
  pEC50: < 4.82

## CCCCn1c(=N)n(CC(=O)c2ccc(Cl)cc2)c2ccccc21
  pEC50: < 4.82

## COc1cc(C2CC(=O)NC3=C2C(=O)CC(c2ccc(C)cc2)C3)ccc1O (stereo not given)
  pEC50: < 4.82

## OC(CNCCc1ccccc1)Cn1c2ccc(Br)cc2c2cc(Br)ccc21 (stereo not given)
  pEC50: 5.81

## CC(C)CCn1cc(C(=O)NC(C)(C)C)c(=O)c(C(=O)N2CCN(C/C=C/c3ccccc3)CC2)c1
  pEC50: < 4.82

## Cc1cccc(NC(=O)CSc2nc(C)c(C)n2-c2ccccc2)c1C
  pEC50: < 4.82

## COc1cc(C2CC(=O)NC3=C2C(=O)CC(c2ccc(OC)c(OC)c2)C3)c(OC)cc1Br (stereo not given)
  pEC50: 6.86

## CC(C)N1CCN(Cc2cc(Br)ccc2O)CC1
  pEC50: < 4.82

## COc1ccc(C(O)Cn2c(=N)n(CCN3CCCCC3)c3ccccc32)cc1 (stereo not given)
  pEC50: < 4.82

## OC(CNCC1CCCO1)Cn1c2ccc(Br)cc2c2cc(Br)ccc21 (stereo not given)
  pEC50: 5.76

## OC(CNc1cccc2ccccc12)Cn1c2ccc(Cl)cc2c2cc(Cl)ccc21 (stereo not given)
  pEC50: 5.36

## CCOC(=O)c1cnc2c(Cl)cccc2c1Nc1cccc(C(C)=O)c1
  pEC50: 5.35

## COc1ccc(CCNC(=O)c2cn(C3CCCCC3)cc(C(=O)NC(C)(C)C)c2=O)cc1
  pEC50: 6.95

## O=C(NC1CCN(Cc2ccccc2)CC1)c1cc(-c2ccncc2)nc2ccc(Cl)cc12
  pEC50: 5.54

## CCCn1c(=N)n(CC(O)COc2ccc(Cl)cc2)c2ccccc21 (stereo not given)
  pEC50: < 4.82

## OCCC1CN(Cc2cc(Cl)ccc2O)CCN1CCc1ccccc1 (stereo not given)
  pEC50: < 4.82

## COc1ccccc1-c1c(C(F)(F)F)oc2c(CN3CCCC3)c(O)ccc2c1=O
  pEC50: < 4.82

## CN(C)c1ccc(NC(=O)/C=C/c2cccc(Cl)c2)cc1
  pEC50: 6.39

## OC(CNCCOc1ccccc1)Cn1c2ccccc2c2ccccc21 (stereo not given)
  pEC50: < 4.82

## O=C(NCC1CCCCC1)c1cn(C2CC2)cc(C(=O)NC2CCN(Cc3ccccc3)CC2)c1=O
  pEC50: < 4.82

## Cc1cc(Cl)ccc1OCC(O)CNC1CCCC1 (stereo not given)
  pEC50: 5.18

## N=c1n(CCN2CCOCC2)c2ccccc2n1CC(O)COc1ccc(Cl)cc1 (stereo not given)
  pEC50: < 4.82
